Data: patent US5672715A, “Herbicidal substituted 3-aryl-pyrazoles” (Monsanto Company, priority 1995, dated 1997)

What was measured:
Assay type in all cases: in vivo
Bedstraw Catchweed [1] = assay: post-emergence herbicide test; conditions: Galium aparine, post-emergence, 0.25 lb/A; read-out: % plant inhibition
Outline: (§1)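 Seeds sown on compacted topsoil, covered, leveled; greenhouse, overhead or subirrigation. Plants 2–3 wk old → atomizer spray, 170.3 kPa, 1870 L/Ha, ~0.4% v/v emulsifier. Readout: % inhibition.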

Morning Glory [2] = assay: post-emergence herbicide test; conditions: Ipomoea, post-emergence, 0.25 lb/A; read-out: % plant inhibition
Outline: as §1

Giant Foxtail [3] = assay: post-emergence herbicide test; conditions: Setaria faberi, post-emergence, 0.25 lb/A; read-out: % plant inhibition
Outline: as §1

Seedling Johnsongrass [4] = assay: post-emergence herbicide test; conditions: Sorghum halepense, post-emergence, 0.25 lb/A; read-out: % plant inhibition
Outline: as §1

Rape [5] = assay: post-emergence herbicide test; conditions: post-emergence, 0.25 lb/A; read-out: % plant inhibition
Outline: as §1

Common Chickweed [6] = assay: post-emergence herbicide test; conditions: post-emergence, 0.25 lb/A; read-out: % plant inhibition
Outline: as §1

Barnyardgrass [7] = assay: post-emergence herbicide test; conditions: Echinochloa crus-galli, post-emergence, 0.25 lb/A; read-out: % plant inhibition
Outline: as §1

Birdseye Speedwell [8] = assay: post-emergence herbicide test; conditions: post-emergence, 0.25 lb/A; read-out: % plant inhibition
Outline: as §1

Blackgrass [9] = assay: post-emergence herbicide test; conditions: Alopecurus myosuroides, post-emergence, 0.25 lb/A; read-out: % plant inhibition
Outline: as §1

Velvetleaf [10] = assay: post-emergence herbicide test; conditions: Abutilon theophrasti, post-emergence, 0.25 lb/A; read-out: % plant inhibition
Outline: as §1

Wheat [11] = assay: post-emergence herbicide test; conditions: Triticum aestivum, post-emergence, 0.25 lb/A; read-out: % plant inhibition
Outline: as §1

Green Foxtail [12] = assay: post-emergence herbicide test; conditions: Setaria viridis, post-emergence, 0.25 lb/A; read-out: % plant inhibition
Outline: as §1

Cocklebur [13] = assay: post-emergence herbicide test; conditions: Xanthium strumarium, post-emergence, 0.25 lb/A; read-out: % plant inhibition
Outline: as §1

Soybean [14] = assay: post-emergence herbicide test; conditions: Glycine max, post-emergence, 0.25 lb/A; read-out: % plant inhibition
Outline: as §1

Corn [15] = assay: post-emergence herbicide test; conditions: Zea mays, post-emergence, 0.25 lb/A; read-out: % plant inhibition
Outline: as §1

Wild Oats [16] = assay: post-emergence herbicide test; conditions: Avena fatua, post-emergence, 0.25 lb/A; read-out: % plant inhibition
Outline: as §1

Downy Brome [17] = assay: post-emergence herbicide test; conditions: Bromus tectorum, post-emergence, 0.25 lb/A; read-out: % plant inhibition
Outline: as §1

Bedstraw Catchweed [18] = assay: pre-emergence herbicide test; conditions: Galium aparine, pre-emergence, 0.25 lb/A; read-out: % plant inhibition
Outline: (§2)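 Steps: compact topsoil in pan; place seeds; level-fill with cover soil; add a known amount of compound before or after covering; keep pans in greenhouse, bottom-watering as needed; rate % inhibition at about 14 days.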

Morning Glory [19] = assay: pre-emergence herbicide test; conditions: Ipomoea, pre-emergence, 0.25 lb/A; read-out: % plant inhibition
Outline: as §2

Giant Foxtail [20] = assay: pre-emergence herbicide test; conditions: Setaria faberi, pre-emergence, 0.25 lb/A; read-out: % plant inhibition
Outline: as §2

Seedling Johnsongrass [21] = assay: pre-emergence herbicide test; conditions: Sorghum halepense, pre-emergence, 0.25 lb/A; read-out: % plant inhibition
Outline: as §2

Rape [22] = assay: pre-emergence herbicide test; conditions: pre-emergence, 0.25 lb/A; read-out: % plant inhibition
Outline: as §2

Common Chickweed [23] = assay: pre-emergence herbicide test; conditions: pre-emergence, 0.25 lb/A; read-out: % plant inhibition
Outline: as §2

Barnyardgrass [24] = assay: pre-emergence herbicide test; conditions: Echinochloa crus-galli, pre-emergence, 0.25 lb/A; read-out: % plant inhibition
Outline: as §2

Birdseye Speedwell [25] = assay: pre-emergence herbicide test; conditions: pre-emergence, 0.25 lb/A; read-out: % plant inhibition
Outline: as §2

Blackgrass [26] = assay: pre-emergence herbicide test; conditions: Alopecurus myosuroides, pre-emergence, 0.25 lb/A; read-out: % plant inhibition
Outline: as §2

Velvetleaf [27] = assay: pre-emergence herbicide test; conditions: Abutilon theophrasti, pre-emergence, 0.25 lb/A; read-out: % plant inhibition
Outline: as §2

Wheat [28] = assay: pre-emergence herbicide test; conditions: Triticum aestivum, pre-emergence, 0.25 lb/A; read-out: % plant inhibition
Outline: as §2

Green Foxtail [29] = assay: pre-emergence herbicide test; conditions: Setaria viridis, pre-emergence; 0.25 lb/A; read-out: % plant inhibition
Outline: as §2

Cocklebur [30] = assay: pre-emergence herbicide test; conditions: Xanthium strumarium, pre-emergence, 0.25 lb/A; read-out: % plant inhibition
Outline: as §2

Soybean [31] = assay: pre-emergence herbicide test; conditions: Glycine max, pre-emergence, 0.25 lb/A; read-out: % plant inhibition
Outline: as §2

Corn [32] = assay: pre-emergence herbicide test; conditions: Zea mays, pre-emergence, 0.25 lb/A; read-out: % plant inhibition
Outline: as §2

Wild Oats [33] = assay: pre-emergence herbicide test; conditions: Avena fatua, pre-emergence, 0.25 lb/A; read-out: % plant inhibition
Outline: as §2

Downy Brome [34] = assay: pre-emergence herbicide test; conditions: Bromus tectorum, pre-emergence, 0.25 lb/A; read-out: % plant inhibition
Outline: as §2

CSCc1cc(-c2nn(C)c(C(F)(F)F)c2C)c(F)cc1Cl [Compound 27]
inhibition at 280.212 g/ha (Bedstraw Catchweed [1]): 90% | inhibition at 280.212 g/ha (Morning Glory [2]): 95% | inhibition at 280.212 g/ha (Giant Foxtail [3]): 35% | inhibition at 280.212 g/ha (Seedling Johnsongrass [4]): 90% | inhibition at 280.212 g/ha (Rape [5]): 50% | inhibition at 280.212 g/ha (Common Chickweed [6]): 65% | inhibition at 280.212 g/ha (Barnyardgrass [7]): 70% | inhibition at 280.212 g/ha (Birdseye Speedwell [8]): 100% | inhibition at 280.212 g/ha (Blackgrass [9]): 30% | inhibition at 280.212 g/ha (Velvetleaf [10]): 98% | inhibition at 280.212 g/ha (Wheat [11]): 13% | inhibition at 280.212 g/ha (Green Foxtail [12]): 75% | inhibition at 280.212 g/ha (Cocklebur [13]): 80% | inhibition at 280.212 g/ha (Soybean [14]): 80% | inhibition at 280.212 g/ha (Corn [15]): 65% | inhibition at 280.212 g/ha (Wild Oats [16]): 25% | inhibition at 280.212 g/ha (Downy Brome [17]): 40% | inhibition at 280.212 g/ha (Bedstraw Catchweed [18]): 65% | inhibition at 280.212 g/ha (Morning Glory [19]): 75% | inhibition at 280.212 g/ha (Giant Foxtail [20]): 50% | inhibition at 280.212 g/ha (Seedling Johnsongrass [21]): 90% | inhibition at 280.212 g/ha (Rape [22]): 10% | inhibition at 280.212 g/ha (Common Chickweed [23]): 75% | inhibition at 280.212 g/ha (Barnyardgrass [24]): 60% | inhibition at 280.212 g/ha (Birdseye Speedwell [25]): 35% | inhibition at 280.212 g/ha (Blackgrass [26]): 35% | inhibition at 280.212 g/ha (Velvetleaf [27]): 90% | inhibition at 280.212 g/ha (Wheat [28]): 0% | inhibition at 280.212 g/ha (Green Foxtail [29]): 100% | inhibition at 280.212 g/ha (Cocklebur [30]): 20% | inhibition at 280.212 g/ha (Soybean [31]): 3% | inhibition at 280.212 g/ha (Corn [32]): 5% | inhibition at 280.212 g/ha (Wild Oats [33]): 5% | inhibition at 280.212 g/ha (Downy Brome [34]): 5%

Cc1c(-c2cc(C(=O)OCc3ccccc3)c(Cl)cc2F)nn(C)c1C(F)(F)F [Compound 41]
inhibition at 280.212 g/ha (Bedstraw Catchweed [1]): 100% | inhibition at 280.212 g/ha (Morning Glory [2]): 75% | inhibition at 280.212 g/ha (Giant Foxtail [3]): 5% | inhibition at 280.212 g/ha (Seedling Johnsongrass [4]): 70% | inhibition at 280.212 g/ha (Rape [5]): 40% | inhibition at 280.212 g/ha (Common Chickweed [6]): 98% | inhibition at 280.212 g/ha (Barnyardgrass [7]): 65% | inhibition at 280.212 g/ha (Birdseye Speedwell [8]): 100% | inhibition at 280.212 g/ha (Blackgrass [9]): 20% | inhibition at 280.212 g/ha (Velvetleaf [10]): 99% | inhibition at 280.212 g/ha (Wheat [11]): 15% | inhibition at 280.212 g/ha (Green Foxtail [12]): 90% | inhibition at 280.212 g/ha (Cocklebur [13]): 95% | inhibition at 280.212 g/ha (Soybean [14]): 15% | inhibition at 280.212 g/ha (Corn [15]): 35% | inhibition at 280.212 g/ha (Wild Oats [16]): 20% | inhibition at 280.212 g/ha (Downy Brome [17]): 30% | inhibition at 280.212 g/ha (Bedstraw Catchweed [18]): 60% | inhibition at 280.212 g/ha (Morning Glory [19]): 0% | inhibition at 280.212 g/ha (Giant Foxtail [20]): 40% | inhibition at 280.212 g/ha (Seedling Johnsongrass [21]): 50% | inhibition at 280.212 g/ha (Rape [22]): 5% | inhibition at 280.212 g/ha (Common Chickweed [23]): 55% | inhibition at 280.212 g/ha (Barnyardgrass [24]): 50% | inhibition at 280.212 g/ha (Birdseye Speedwell [25]): 100% | inhibition at 280.212 g/ha (Blackgrass [26]): 15% | inhibition at 280.212 g/ha (Velvetleaf [27]): 90% | inhibition at 280.212 g/ha (Wheat [28]): 3% | inhibition at 280.212 g/ha (Green Foxtail [29]): 100% | inhibition at 280.212 g/ha (Cocklebur [30]): 25% | inhibition at 280.212 g/ha (Soybean [31]): 0% | inhibition at 280.212 g/ha (Corn [32]): 0% | inhibition at 280.212 g/ha (Wild Oats [33]): 10% | inhibition at 280.212 g/ha (Downy Brome [34]): 30%

Cc1cc(-c2nn(C)c(C(F)(F)F)c2C)c(O)cc1Cl [Compound 16]
inhibition at 280.212 g/ha (Bedstraw Catchweed [1]): 25% | inhibition at 280.212 g/ha (Morning Glory [2]): 5% | inhibition at 280.212 g/ha (Giant Foxtail [3]): 0% | inhibition at 280.212 g/ha (Seedling Johnsongrass [4]): 0% | inhibition at 280.212 g/ha (Rape [5]): 0% | inhibition at 280.212 g/ha (Common Chickweed [6]): 50% | inhibition at 280.212 g/ha (Barnyardgrass [7]): 0% | inhibition at 280.212 g/ha (Birdseye Speedwell [8]): 30% | inhibition at 280.212 g/ha (Blackgrass [9]): 5% | inhibition at 280.212 g/ha (Velvetleaf [10]): 0% | inhibition at 280.212 g/ha (Wheat [11]): 0% | inhibition at 280.212 g/ha (Green Foxtail [12]): 0% | inhibition at 280.212 g/ha (Cocklebur [13]): 0% | inhibition at 280.212 g/ha (Soybean [14]): 0% | inhibition at 280.212 g/ha (Corn [15]): 0% | inhibition at 280.212 g/ha (Wild Oats [16]): 0% | inhibition at 280.212 g/ha (Downy Brome [17]): 0% | inhibition at 280.212 g/ha (Bedstraw Catchweed [18]): 45% | inhibition at 280.212 g/ha (Morning Glory [19]): 0% | inhibition at 280.212 g/ha (Giant Foxtail [20]): 0% | inhibition at 280.212 g/ha (Seedling Johnsongrass [21]): 0% | inhibition at 280.212 g/ha (Rape [22]): 55% | inhibition at 280.212 g/ha (Common Chickweed [23]): 95% | inhibition at 280.212 g/ha (Barnyardgrass [24]): 0% | inhibition at 280.212 g/ha (Birdseye Speedwell [25]): 100% | inhibition at 280.212 g/ha (Blackgrass [26]): 15% | inhibition at 280.212 g/ha (Velvetleaf [27]): 0% | inhibition at 280.212 g/ha (Wheat [28]): 0% | inhibition at 280.212 g/ha (Green Foxtail [29]): 10% | inhibition at 280.212 g/ha (Cocklebur [30]): 0% | inhibition at 280.212 g/ha (Soybean [31]): 0% | inhibition at 280.212 g/ha (Corn [32]): 0% | inhibition at 280.212 g/ha (Wild Oats [33]): 20% | inhibition at 280.212 g/ha (Downy Brome [34]): 20%
